# According to patent US20260070895A1, “CRYSTALLINE FORMS” (QUIMATRYX, S.L., priority 2022, published 2026):
# Entries after “also recorded” stand apart in the source; their conditions may differ.
# What was measured:
# [1] = Photostability in solution (THF and water), HPLC; type: physicochemical
# Protocol: (§1) The method for determining purity by HPLC—used throughout these examples—used the following parameters:
# (§2) The photostability of novel crystalline forms of QTX125 was assessed at solid state and in solution. Where ‘forced illumination’ conditions were used, samples were illuminated at 12 Klux/hour and 2.8 UV W/m^2/hour. Samples were stored at a temperature of 30° C. Following incubation, the chemical purity of QTX125 was measured by HPLC.
# (§3) The following index is provided to aid navigation of the data presented in Tables 3.1.1 to 3.3.6: • 3.1.x—Assessment of the photostability of QTX125 Form 2. • 3.2.x—Assessment of the photostability of amorphous QTX125. • 3.3.x—Assessment of the photostability of the QTX125 1:2 L-Lysine adduct. • 3.x.1—Samples (at solid state) stored in unsealed clear glass bottles, subject to forced illumination. • 3.x.2—Samples (at solid state) sealed under nitrogen in clear glass bottles, subject to forced illumination. • 3.x.3—Samples (at solid state) sealed under nitrogen in amber glass bottles, illuminated under ambient laboratory conditions • 3.x.4—Samples (at solid state) sealed under nitrogen in amber glass bottles, subject to forced illumination. • 3.x.5—Samples (in solution) sealed under nitrogen in amber glass bottles, illuminated under ambient laboratory conditions. • 3.x.6—Samples (in solution) sealed under nitrogen in amber glass bottles, subject to forced illumination.
# [2] = Photostability at solid state (chemical purity by HPLC after illumination); type: physicochemical; conditions: for HPLC peak area, QTX125 RRT 1.00 / HPLC peak area, RRT 1.04 / HPLC peak area, RRT 1.12 / degradation (in words) / colour change of the solid material: solid-state; for degradation (in words): up to 171 hours
# Protocol: as §1, §2, §3
# [3] = sealed under nitrogen in amber glass bottles, ambient laboratory conditions, 0 hours
# [4] = sealed under nitrogen in amber glass bottles, ambient laboratory conditions, 3 hours
# [5] = sealed under nitrogen in amber glass bottles, ambient laboratory conditions, 50 hours
# [6] = sealed under nitrogen in amber glass bottles, ambient laboratory conditions, 171 hours
# [7] = sealed under nitrogen in amber glass bottles, forced illumination, 171 hours
# [8] = sealed under nitrogen in clear glass bottles, forced illumination
# [9] = sealed under nitrogen in clear glass bottles, forced illumination, 0 hours
# [10] = sealed under nitrogen in clear glass bottles, forced illumination, 3 hours
# [11] = sealed under nitrogen in clear glass bottles, forced illumination, 50 hours
# [12] = sealed under nitrogen in clear glass bottles, forced illumination, 171 hours
# [13] = unsealed clear glass bottles, forced illumination
# [14] = unsealed clear glass bottles, forced illumination, 0 hours
# [15] = unsealed clear glass bottles, forced illumination, 3 hours
# [16] = unsealed clear glass bottles, forced illumination, 50 hours
# [17] = unsealed clear glass bottles, forced illumination, 171 hours
structure (smiles),measurement,setting,value
NCCCC[C@H](N)C(=O)O.NCCCC[C@H](N)C(=O)O.O=C(NO)c1ccc(CNC(=O)c2[nH]c(-c3ccc(O)cc3)cc2-c2ccoc2)cc1 [QTX125 1:2 L-Lysine adduct],"HPLC peak area, RRT 1.12","[1]; in solution (THF and water), sealed under nitrogen in amber glass bottles, forced illumination, 171 hours",1.17%
same,degradation (in words),"[1]; in solution (THF and water), sealed under nitrogen in amber glass bottles, forced illumination, up to 171 hours",degrades
same,photostability as compared to amorphous QTX125 and Form 2,"[1]; in solution, amber glass bottles, ambient laboratory conditions, 171 hours",enhanced photostability
same,photostability as compared to amorphous QTX125 or Form 2,"[1]; in solution, amber glass bottles, forced illumination, 171 hours",enhanced photostability
same,photostability as compared to both QTX125 Form 2 and amorphous QTX125,[1]; stored in solution (conclusion),improved photostability
same,photostability as compared to amorphous QTX125,[2]; at solid state,enhanced photostability; also recorded: improved photostability
same,"HPLC peak area, QTX125 RRT 1.00",[2]; [3],96.83%
same,"HPLC peak area, RRT 1.04",[2]; [3],1.15%
same,"HPLC peak area, QTX125 RRT 1.00",[2]; [4],96.82%
same,"HPLC peak area, RRT 1.04",[2]; [4],1.21%
same,"HPLC peak area, QTX125 RRT 1.00",[2]; [5],97.84%
same,"HPLC peak area, RRT 1.04",[2]; [5],0.58%
same,"HPLC peak area, QTX125 RRT 1.00",[2]; [6],97.29%
same,"HPLC peak area, RRT 1.04",[2]; [6],1.30%
same,"HPLC peak area, RRT 1.12",[2]; [6],0.35%
same,degradation (in words),"[2]; sealed under nitrogen in amber glass bottles, ambient laboratory conditions",little evidence of degradation
same,"HPLC peak area, QTX125 RRT 1.00",[2]; [7],96.27%
same,"HPLC peak area, RRT 1.04",[2]; [7],1.74%
same,"HPLC peak area, RRT 1.12",[2]; [7],0.59%
same,degradation (in words),"[2]; sealed under nitrogen in amber glass bottles, forced illumination",degrades slightly
same,colour change of the solid material,[2]; [8],A change in the colour of the solid material was not identified
same,"HPLC peak area, QTX125 RRT 1.00",[2]; [9],96.83%
same,"HPLC peak area, RRT 1.04",[2]; [9],1.15%
same,"HPLC peak area, QTX125 RRT 1.00",[2]; [10],95.57%
same,"HPLC peak area, RRT 1.04",[2]; [10],1.90%
same,"HPLC peak area, RRT 1.12",[2]; [10],0.65%
same,"HPLC peak area, QTX125 RRT 1.00",[2]; [11],89.67%
same,"HPLC peak area, RRT 1.04",[2]; [11],5.79%
same,"HPLC peak area, RRT 1.12",[2]; [11],2.74%
same,"HPLC peak area, QTX125 RRT 1.00",[2]; [12],85.21%
same,"HPLC peak area, RRT 1.04",[2]; [12],9.04%
same,"HPLC peak area, RRT 1.12",[2]; [12],3.94%
same,degradation (in words),[2]; [8],degrades under forced illumination to two principal components
same,colour change of the solid material,[2]; [13],A change in the colour of the solid material was not identified
same,"HPLC peak area, QTX125 RRT 1.00",[2]; [14],96.83%
same,"HPLC peak area, RRT 1.04",[2]; [14],1.15%
same,"HPLC peak area, QTX125 RRT 1.00",[2]; [15],95.51%
same,"HPLC peak area, RRT 1.04",[2]; [15],1.98%
same,"HPLC peak area, QTX125 RRT 1.00",[2]; [16],88.96%
same,"HPLC peak area, RRT 1.04",[2]; [16],6.16%
same,"HPLC peak area, RRT 1.12",[2]; [16],3.08%
same,"HPLC peak area, QTX125 RRT 1.00",[2]; [17],84.14%
same,"HPLC peak area, RRT 1.04",[2]; [17],9.20%
same,"HPLC peak area, RRT 1.12",[2]; [17],4.38%
same,degradation (in words),[2]; [13],degrades under forced illumination to two principal components
